Series [1] relates to HEK-293T. As to the kind of experiment: Incucyte cell viability with HEK293T. The class given is toxicity, cell-based. The following applies: human, 10 µM, compound concentration 10 uM.
Series [2] has as its system Fibroblast. Kind of series: Incucyte cell viability with human fibroblast. The following applies: 10 µM, compound concentration 10 uM. The format is toxicity, cell-based.
The mark [3] stands for this setting: 6 h, replicate number 1, timepoint 6 hours.
[4] abbreviates: 12 h, replicate number 1, timepoint 12 hours.
Setting [5] is: 18 h, replicate number 1, timepoint 18 hours.
The mark [6] stands for this setting: 24 h, replicate number 1, timepoint 24 hours.
Setting [7] is: 0 h, replicate number 2, timepoint 0 hours.
[8] abbreviates: 0 h, replicate number 1, timepoint 0 hours.
Where [9] appears, read: 18 h, replicate number 2, timepoint 18 hours.
Setting [10] is: 24 h, replicate number 2, timepoint 24 hours.
[11] abbreviates: 6 h, replicate number 2, timepoint 6 hours.
Further: filed as whole numbers so only -1 and 0 and 1 occur.

For the molecule `CNCc1ccccc1-c1csc([C@H](C)Nc2nc(C)nc3cc(OC)c(OC)cc23)c1` [BAY-294], the “Growth Rate” value in series [1] (setting [3]), in series [1] (setting [4]), in series [1] (setting [5]), in series [1] (setting [6]), in series [2] (setting [3]) and in series [2] (setting [4]) was 0 in each case. The “Growth Rate” value in series [2] (setting [5]) and in series [2] (setting [6]) was 0 each time.

Turning to `CN(C)c1ncnc(-c2ccc3nc(Nc4cc(CN5CCN(C(=O)CC(F)(F)F)CC5)ccn4)[nH]c3c2)c1Cl` [BAY-440], the “Growth Rate” value in series [1] (setting [7]), in series [1] (setting [3]), in series [1] (setting [4]), in series [1] (setting [5]), in series [1] (setting [6]) and in series [2] (setting [8]) was 0 throughout. The “Growth Rate” value is reported as 1 in series [2] (setting [3]); 1 in series [2] (setting [4]); 1 in series [2] (setting [5]); 0 in series [2] (setting [9]); 1 in series [2] (setting [6]); 0 in series [2] (setting [10]).

On to `COc1ccc(Oc2cc(NCCC(F)(F)F)c3ncc(-c4ccc(C(=O)NC5CC5)c(C)c4)n3n2)c(F)c1F` [BAY-1217389], for which the “Growth Rate” value is 0 in series [1] (setting [8]); 0 in series [1] (setting [3]); 0 in series [1] (setting [4]); 0 in series [1] (setting [5]); 0 in series [1] (setting [6]); 1 in series [2] (setting [7]). Further, the “Growth Rate” value in series [2] (setting [3]), in series [2] (setting [4]), in series [2] (setting [5]) and in series [2] (setting [6]) was 0 throughout.

As for `Cc1c(-c2ccc(O)cc2)n(Cc2ccc(OCCN3CCCCCC3)cc2)c2ccc(O)cc12` [BAZEDOXIFENE], the “Growth Rate” value in series [1] (setting [7]), in series [1] (setting [3]), in series [1] (setting [4]), in series [1] (setting [5]), in series [1] (setting [6]) and in series [2] (setting [8]) was 0 each time. Also, the “Growth Rate” value in series [2] (setting [3]), in series [2] (setting [4]), in series [2] (setting [5]) and in series [2] (setting [6]) was 0 each time.

`CC(C)NCC(O)COc1ccc(CCOCC2CC2)cc1.Cl` (configuration not stated) [BETAXOLOL HYDROCHLORIDE]: the “Growth Rate” value in series [1] (setting [7]) amounted to 0; in series [1] (setting [3]) it was 0; in series [1] (setting [11]), 1; in series [1] (setting [4]) it was 0; in series [1] (setting [5]) it was 0; in series [1] (setting [6]), 0. Moreover, the “Growth Rate” value in series [2] (setting [8]), in series [2] (setting [3]), in series [2] (setting [4]), in series [2] (setting [5]) and in series [2] (setting [6]) was 0 in each case.

For the molecule `C[C@@]1(C(=O)Nc2ccc(F)nc2)CCCN1c1nc(Nc2cc(C3CC3)n[nH]2)c2cccn2n1` [BMS-754807], the “Growth Rate” value in series [1] (setting [3]), in series [1] (setting [4]), in series [1] (setting [5]), in series [1] (setting [6]), in series [2] (setting [3]) and in series [2] (setting [4]) was 0 in each case. In addition, the “Growth Rate” value in series [2] (setting [5]) and in series [2] (setting [6]) was 0 each time.

For the molecule `C=CC(=O)Nc1cc2c(Nc3ccc(F)c(Cl)c3)ncnc2cc1OCCCN1CCOCC1.Cl.Cl` [CANERTINIB DIHYDROCHLORIDE], the “Growth Rate” value in series [1] (setting [3]) amounted to 0; in series [1] (setting [4]), 0; in series [1] (setting [5]) it was 0; in series [1] (setting [6]), 0; in series [2] (setting [8]), 1; in series [2] (setting [3]), 0. The “Growth Rate” value in series [2] (setting [4]), in series [2] (setting [5]) and in series [2] (setting [6]) was 0 throughout.

As for `CN(C)C(=O)N[C@H]1CC[C@H](CCN2CCN(c3cccc(Cl)c3Cl)CC2)CC1.Cl` [CARIPRAZINE HYDROCHLORIDE], the “Growth Rate” value in series [1] (setting [7]) turned out to be 1; in series [1] (setting [3]) it was 0; in series [1] (setting [4]) it was 0; in series [1] (setting [5]), 0; in series [1] (setting [6]), 0; in series [2] (setting [8]), 0. Also, the “Growth Rate” value is on record as 0 in series [2] (setting [3]); 0 in series [2] (setting [4]); 1 in series [2] (setting [5]); 0 in series [2] (setting [9]); 1 in series [2] (setting [6]); 0 in series [2] (setting [10]).

For the molecule `C[C@@H](NCCCc1cccc(C(F)(F)F)c1)c1cccc2ccccc12.Cl` [CINACALCET HYDROCHLORIDE], the “Growth Rate” value in series [1] (setting [7]) is 0; in series [1] (setting [3]), 0; in series [1] (setting [4]) it was 0; in series [1] (setting [5]), 0; in series [1] (setting [6]), 0; in series [2] (setting [8]), 1. Besides, the “Growth Rate” value in series [2] (setting [3]), in series [2] (setting [4]), in series [2] (setting [5]) and in series [2] (setting [6]) was 0 in each case.

For `CN1CCC[C@@H]1CCO[C@](C)(c1ccccc1)c1ccc(Cl)cc1.O=C(O)/C=C/C(=O)O` [CLEMASTINE FUMARATE], the “Growth Rate” value was 1 in series [1] (setting [7]); 0 in series [1] (setting [3]); 0 in series [1] (setting [4]); 0 in series [1] (setting [5]); 0 in series [1] (setting [6]); 0 in series [2] (setting [8]). For the same molecule, the “Growth Rate” value is recorded as 1 in series [2] (setting [3]); 0 in series [2] (setting [11]); 0 in series [2] (setting [4]); 0 in series [2] (setting [5]); 0 in series [2] (setting [6]).

Take `c1cn2cc(-c3ccc4cn[nH]c4c3)nc(Nc3ccc(N4CCOCC4)cc3)c2n1` [ENTOSPLETINIB]: the “Growth Rate” value in series [1] (setting [6]) amounted to 1; in series [2] (setting [7]) it was 0; in series [2] (setting [3]), 0; in series [2] (setting [4]), 0; in series [2] (setting [5]) it was 0; in series [2] (setting [6]) it was 0.

As to `Cn1cc(C2=C(c3cn(C4CCN(Cc5ccccn5)CC4)c4ccccc34)C(=O)NC2=O)c2ccccc21` [ENZASTAURIN], the “Growth Rate” value in series [1] (setting [3]), in series [1] (setting [4]), in series [1] (setting [5]), in series [1] (setting [6]), in series [2] (setting [3]) and in series [2] (setting [4]) was 0 throughout. For the same molecule, the “Growth Rate” value in series [2] (setting [5]) and in series [2] (setting [6]) was 0 in each case.

Take `O=C(NCCN1CCOCC1)c1ccc2c(c1)C(=O)c1ccc(Nc3ccc(F)c(NC(=O)c4ccccc4)c3)cc1CC2` [FS-694]: the “Growth Rate” value in series [1] (setting [7]), in series [1] (setting [3]), in series [1] (setting [4]), in series [1] (setting [5]), in series [1] (setting [6]) and in series [2] (setting [8]) was 0 each time. The “Growth Rate” value in series [2] (setting [3]) came to 1; in series [2] (setting [4]), 0; in series [2] (setting [5]), 0; in series [2] (setting [6]), 0.

With `CC[C@H](C)C(=O)O[C@H]1C[C@@H](C)C=C2C=C[C@H](C)[C@H](CC[C@@H]3C[C@@H](O)CC(=O)O3)[C@H]21` [LOVASTATIN], the “Growth Rate” value is reported as 0 in series [1] (setting [8]); 1 in series [1] (setting [3]); 0 in series [1] (setting [4]); 1 in series [1] (12 h, replicate number 2, timepoint 12 hours); 0 in series [1] (setting [5]); 0 in series [1] (setting [6]). Further, the “Growth Rate” value in series [2] (setting [8]) was 0; in series [2] (setting [3]) it was 1; in series [2] (setting [4]) it was 1; in series [2] (setting [5]), 1; in series [2] (setting [6]), 1.

As for `COc1ncc(-c2ccc3nccc(-c4ccnnc4)c3c2)cc1NS(=O)(=O)c1ccc(F)cc1F` [OMIPALISIB], the “Growth Rate” value in series [1] (setting [3]), in series [1] (setting [4]), in series [1] (setting [5]), in series [1] (setting [6]), in series [2] (setting [7]) and in series [2] (setting [3]) was 0 in each case. Also, the “Growth Rate” value in series [2] (setting [4]), in series [2] (setting [5]) and in series [2] (setting [6]) was 0 each time.

In the case of `CN1CCN(c2ccc(OC(F)(F)F)c(Nc3ncc4c(n3)-c3c(c(C(N)=O)nn3CCO)CC4)c2)CC1` [ONVANSERTIB], the “Growth Rate” value is reported as 1 in series [1] (setting [8]); 0 in series [1] (setting [7]); 0 in series [1] (setting [3]); 0 in series [1] (setting [4]); 0 in series [1] (setting [5]); 0 in series [1] (setting [6]). Moreover, the “Growth Rate” value in series [2] (setting [3]), in series [2] (setting [4]), in series [2] (setting [5]) and in series [2] (setting [6]) was 0 each time.

For the molecule `CCN(CC)CCCCNc1ncc2cc(-c3cc(OC)cc(OC)c3)c(NC(=O)NC(C)(C)C)nc2n1` [PD-173074], the “Growth Rate” value worked out at 1 in series [1] (setting [8]); 0 in series [1] (setting [3]); 0 in series [1] (setting [4]); 0 in series [1] (setting [5]); 0 in series [1] (setting [6]); 1 in series [2] (setting [8]). Also, the “Growth Rate” value in series [2] (setting [7]) amounted to 0; in series [2] (setting [3]), 1; in series [2] (setting [4]), 0; in series [2] (setting [5]), 0; in series [2] (setting [6]), 0.

For the molecule `Cc1nc(Nc2n[nH]c3c2CN(C(=O)N[C@H](CN(C)C)c2ccccc2)C3(C)C)c2sccc2n1` [PF-03758309], the “Growth Rate” value in series [1] (setting [3]), in series [1] (setting [4]), in series [1] (setting [5]), in series [1] (setting [6]), in series [2] (setting [7]) and in series [2] (setting [3]) was 0 in each case. Moreover, the “Growth Rate” value in series [2] (setting [4]), in series [2] (setting [5]) and in series [2] (setting [6]) was 0 throughout.

For the molecule `CN1CCN(CCOc2cc(OC3CCOCC3)c3c(Nc4c(Cl)ccc5c4OCO5)ncnc3c2)CC1` [SARACATINIB], the “Growth Rate” value in series [1] (setting [3]) was 0; in series [1] (setting [4]), 0; in series [1] (setting [5]), 0; in series [1] (setting [6]), 0; in series [2] (setting [8]), 0; in series [2] (setting [5]), 1. Also, in series [2] (setting [6]), the “Growth Rate” value stood at 1.

Consider `Cc1nc(-c2ccc(-c3ccc(C(=O)N4CCc5cc6c(cc54)C4(CCN(C)CC4)CO6)cc3)c(C)c2)no1` [SB-224289], for which the “Growth Rate” value in series [1] (setting [7]), in series [1] (setting [3]), in series [1] (setting [4]), in series [1] (setting [5]), in series [1] (setting [6]) and in series [2] (setting [8]) was 0 throughout. Moreover, the “Growth Rate” value in series [2] (setting [11]), in series [2] (setting [4]), in series [2] (setting [5]) and in series [2] (setting [6]) was 0 in each case.

`O=C1NCN(c2ccccc2)C12CCN(CCCOc1ccc(F)cc1)CC2` [SPIRAMIDE]: the “Growth Rate” value in series [1] (setting [8]) was determined as 0; in series [1] (setting [3]), 0; in series [1] (setting [4]), 0; in series [1] (setting [5]), 0; in series [1] (setting [6]), 0; in series [2] (setting [8]), 1. The “Growth Rate” value in series [2] (setting [3]), in series [2] (setting [4]), in series [2] (setting [5]) and in series [2] (setting [6]) was 0 each time.

The values are drawn from ChEMBL document CHEMBL4689842, “EUbOPEN Chemogenomics Library wave 1” (2021).
